Results from patent US8883963B2 (Cadila Healthcare Limited, priority 2007, dated 2014).
Starred links: 1 amine or outer side, 2 acyl side, 3 side chain; linkers in the order of their positions; H or OH if unused. Non-standard residues stand in square brackets, D forms with d. Residues, ends and D or L forms follow the SMILES beside them. ξ: configuration not given here. Leu(5,5,5,5',5',5'-F6) = N[C@@H](CC(C(F)(F)F)C(F)(F)F)C(=O)O; ξBip(2'-Et-4'-OMe) = CCc1cc(OC)ccc1-c1ccc(CC(N)C(=O)O)cc1; X1 = O=C(C(CCCc1ccc(C(F)(F)F)cc1F)N[*:1])[*:2]; ξNva(5-(3-Cl-Ph)) = NC(CCCc1cccc(Cl)c1)C(=O)O; ξbishPhe(2-F) = NC(CCCc1ccccc1F)C(=O)O; ξαMePhe(2-F) = CC(N)(Cc1ccccc1F)C(=O)O; Aib = CC(C)(N)C(=O)O

Tests used:
[1] = Stability in human plasma; assay type: in vitro ADME; details: 2 μM peptidomimetic, pooled human plasma, 37° C.; for half-life at 2 μM: pH 7.8, read-out: half-life (t1/2) when incubated with human plasma
Protocol: (§1) Reactions were terminated by the addition of TFA/H2O (15 mL, 10% (v/v)). […] The column was equilibrated with TFA/H20, at a flow rate of 1 mL/min.

DPP IV = DPP IV (Homo sapiens, UniProt P27487); assay: Stability against DPP IV enzyme; assay type: in vitro ADME; details: 37° C.; for % degradation of peptidomimetics in 24 h when incubated with DPP-IV enzyme: 2 μM peptidomimetic; for half-life at 2 μM: DPP IV enzyme, pH 7.8, 2 μM peptidomimetic, read-out: half-life (t1/2) when incubated with DPP-IV enzyme
Protocol: as §1

human glucagon receptor = target: T1, human glucagon receptor (Homo sapiens, UniProt P47871); assay: In vitro human glucagon antagonist activity (inhibition of cAMP production) in CHO/human glucagon R cells; assay type: cell-based; details: with saturated concentration of glucagon peptide
T1 construct: The full-length cDNA was cloned in pcDNA3.1 (Invitrogen); expressed in transfected cells

[2] = Stability in simulated intestinal fluid; assay type: in vitro ADME; details: 2 μM peptidomimetic, simulated intestinal fluid pH 7.5, 37° C.; for half-life at 2 μM: read-out: half-life (t1/2) when incubated with simulated intestinal fluid
Protocol: as §1

[3] = Stability in liver microsomes; assay type: in vitro ADME; details: 2 μM peptidomimetic, human liver microsomes, 37° C.; for half-life at 2 μM: pH 7.8, read-out: half-life (t1/2) when incubated with liver microsomes
Protocol: as §1

[4] = Stability in simulated gastric fluid; assay type: in vitro ADME; details: 2 μM peptidomimetic, simulated gastric fluid pH 1.5, 37° C.; for half-life at 2 μM: read-out: half-life (t1/2) when incubated with simulated gastric fluid
Protocol: as §1

T1 sequence (P47871 26-477): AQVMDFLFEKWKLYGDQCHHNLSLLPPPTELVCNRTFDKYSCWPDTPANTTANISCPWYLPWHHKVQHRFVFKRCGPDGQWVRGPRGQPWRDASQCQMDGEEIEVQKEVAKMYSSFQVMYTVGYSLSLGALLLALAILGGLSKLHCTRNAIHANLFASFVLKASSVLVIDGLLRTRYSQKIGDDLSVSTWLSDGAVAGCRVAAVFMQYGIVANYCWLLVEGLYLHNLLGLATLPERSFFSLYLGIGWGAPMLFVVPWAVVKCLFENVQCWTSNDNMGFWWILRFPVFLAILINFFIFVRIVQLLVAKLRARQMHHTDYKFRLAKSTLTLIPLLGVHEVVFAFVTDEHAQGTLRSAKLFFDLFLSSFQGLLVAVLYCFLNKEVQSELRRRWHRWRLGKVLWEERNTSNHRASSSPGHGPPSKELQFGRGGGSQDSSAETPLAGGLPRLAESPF
DPP IV, sequence (P27487 whole entry, species assumed): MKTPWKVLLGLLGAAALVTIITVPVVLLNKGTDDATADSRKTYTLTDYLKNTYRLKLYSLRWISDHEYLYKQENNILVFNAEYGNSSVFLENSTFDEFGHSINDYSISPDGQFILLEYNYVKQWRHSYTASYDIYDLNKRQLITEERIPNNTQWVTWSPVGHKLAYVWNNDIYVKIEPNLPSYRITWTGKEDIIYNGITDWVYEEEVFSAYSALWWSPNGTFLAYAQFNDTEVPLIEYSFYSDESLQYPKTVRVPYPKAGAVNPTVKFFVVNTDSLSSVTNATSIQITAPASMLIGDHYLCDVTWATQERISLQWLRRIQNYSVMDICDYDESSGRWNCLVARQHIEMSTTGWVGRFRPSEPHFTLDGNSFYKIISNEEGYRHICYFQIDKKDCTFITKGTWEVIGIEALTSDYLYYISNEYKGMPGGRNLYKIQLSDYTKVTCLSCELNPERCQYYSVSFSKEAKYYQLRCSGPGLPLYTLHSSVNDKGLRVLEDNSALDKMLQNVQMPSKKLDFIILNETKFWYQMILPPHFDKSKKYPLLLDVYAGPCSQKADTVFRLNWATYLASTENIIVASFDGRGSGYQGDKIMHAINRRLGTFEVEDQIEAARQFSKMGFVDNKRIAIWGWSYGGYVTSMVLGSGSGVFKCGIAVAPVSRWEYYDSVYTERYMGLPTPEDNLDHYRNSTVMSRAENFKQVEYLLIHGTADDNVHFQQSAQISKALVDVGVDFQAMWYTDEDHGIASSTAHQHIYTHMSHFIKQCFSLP

Row | half-life at 2 μM [1] [h] | half-life at 2 μM (DPP IV) [h] | half-life (t1/2) when incubated with simulated intestinal fluid [2] | SMILES | half-life (t1/2) when incubated with human plasma [1] | % degradation of peptidomimetics in 24 h when incubated with human plasma [1] [%] | % degradation of peptidomimetics in 24 h when incubated with DPP-IV enzyme (DPP IV) [%] | Human Glucagon receptor antagonistic activity shown as inhibition of cAMP production of Glucagon peptide (human glucagon receptor; 1 nM test compound) [pmol/ml/μg prt] | Human Glucagon receptor antagonistic activity shown as inhibition of cAMP production of Glucagon peptide (human glucagon receptor; 10 nM test compound) [pmol/ml/μg prt] | Human Glucagon receptor antagonistic activity shown as inhibition of cAMP production of Glucagon peptide (human glucagon receptor; 100 nM test compound) [pmol/ml/μg prt] | Human Glucagon receptor antagonistic activity shown as inhibition of cAMP production of Glucagon peptide (human glucagon receptor; 1 μM test compound) [pmol/ml/μg prt] | Human Glucagon receptor antagonistic activity shown as inhibition of cAMP production of Glucagon peptide (human glucagon receptor; 10 μM test compound) [pmol/ml/μg prt] | % degradation of peptidomimetics in 24 h when incubated with simulated intestinal fluid [2] [%] | half-life at 2 μM [2] [h] | % degradation of peptidomimetics in 24 h when incubated with liver microsomes [3] [%] | half-life at 2 μM [3] [h] | % degradation of peptidomimetics in 24 h when incubated with simulated gastric fluid [4] [%] | half-life at 2 μM [4] [h] | half-life (t1/2) when incubated with simulated gastric fluid [4]
1 |  |  |  | CCc1cc(OC)ccc1-c1ccc(CC(NC(=O)[C@H](CC(=O)O)NC(=O)[C@H](CO)NC(=O)[C@@H](NC(=O)C(C)(Cc2ccccc2F)NC(=O)[C@@H](NC(=O)CNC(=O)[C@H](CC(C(F)(F)F)C(F)(F)F)NC(=O)C(C)(C)NC(=O)[C@H](Cc2c[nH]cn2)NC(C)=O)[C@@H](C)O)[C@@H](C)O)C(=O)NC(CCCc2ccccc2F)C(N)=O)cc1 (stereo partly shown) [compound 212] (Ac-H[Aib][Leu(5,5,5,5',5',5'-F6)]GT[ξαMePhe(2-F)]TSD[ξBip(2'-Et-4'-OMe)][ξbishPhe(2-F)]-NH2) | (9) h | 80 | 77 | 10 ± 0.12 | 8 ± 0.02 | 6 ± 0.04 | 4 ± 0.05 | 1 ± 0.02 | 100 | 0.5 | 100 | 0.5 | 100 | 0.5 | 
2 |  |  |  | CCc1cc(OC)ccc1-c1ccc(CC(NC(=O)[C@H](CC(=O)O)NC(=O)[C@H](CO)NC(=O)[C@@H](NC(=O)C(C)(Cc2ccccc2F)NC(=O)[C@@H](NC(=O)CNC(=O)C(CCC#N)NC(=O)C(C)(C)NC(=O)[C@H](Cc2c[nH]cn2)NC(=O)OC)[C@@H](C)O)[C@@H](C)O)C(=O)NC(CCCc2ccccc2F)C(N)=O)cc1 (single isomer, unassigned) [compound 208] | (9) h | 78 | 76 | 5 ± 0.04 | 3 ± 0.15 | 1 ± 0.15 | 0 | 0 | 100 | 0.5 | 100 | 0.5 | 100 | 0.5 | 
3 | 8 | 8 | (6) h | CCc1cc(OC)ccc1-c1ccc(CC(NC(=O)[C@H](CC(=O)O)NC(=O)[C@H](CO)NC(=O)[C@@H](NC(=O)[C@H](Cc2ccccc2)NC(=O)[C@@H](NC(=O)CNC(=O)[C@H](CCC(N)=O)NC(=O)[C@H](CO)NC(=O)[C@@H](N)Cc2c[nH]cn2)[C@@H](C)O)[C@@H](C)O)C(=O)NC(CCCc2cccc(Cl)c2)C(N)=O)cc1 (stereo partly shown) [compound 7] (H-HSQGTFTSD[ξBip(2'-Et-4'-OMe)][ξNva(5-(3-Cl-Ph))]-NH2) |  | 69 | 71 |  |  |  |  |  | 43 |  | 77 | 2 | 11 | 7 | 
4 | > 24 | > 24 |  | CCc1cc(OC)ccc1-c1ccc(CC(CNC(CCCc2ccccc2)C(N)=O)NC[C@H](CC(=O)O)NC(=O)[C@H](CO)NC(=O)[C@@H](NC(=O)C(C)(Cc2ccccc2F)NC(=O)[C@@H](NC(=O)CNC(=O)[C@H](CCC(N)=O)NC(=O)C(C)(C)NC(=O)[C@@H](N)Cc2c[nH]cn2)[C@H](C)O)[C@H](C)O)cc1 (single isomer, unassigned) [compound 201] |  | 00 | 00 |  |  |  |  |  | 00 | > 24 | 84 | 2 | 43 | 4 | 
5 | 8 | 9 | (6) h | CCc1cc(OC)ccc1-c1ccc(CC(NC(=O)[C@H](CC(=O)O)NC(=O)[C@H](CO)NC(=O)[C@@H](NC(=O)[C@H](Cc2ccccc2)NC(=O)[C@@H](NC(=O)CNC(=O)[C@H](CCC(N)=O)NC(=O)C2(NC(=O)[C@@H](N)Cc3c[nH]cn3)CC2)[C@@H](C)O)[C@@H](C)O)C(=O)NC(CCCc2ccc(F)cc2F)C(N)=O)cc1 (single isomer, unassigned) [compound 70] |  | 71 | 70 |  |  |  |  |  | 40 |  | 78 | 1 | 14 |  | (8) h

Row | SMILES | half-life at 2 μM [1] [h] | half-life at 2 μM (DPP IV) [h] | half-life (t1/2) when incubated with simulated intestinal fluid [2] | half-life (t1/2) when incubated with human plasma [1] | % degradation of peptidomimetics in 24 h when incubated with human plasma [1] [%] | % degradation of peptidomimetics in 24 h when incubated with DPP-IV enzyme (DPP IV) [%] | Human Glucagon receptor antagonistic activity shown as inhibition of cAMP production of Glucagon peptide (human glucagon receptor; 1 nM test compound) [pmol/ml/μg prt] | Human Glucagon receptor antagonistic activity shown as inhibition of cAMP production of Glucagon peptide (human glucagon receptor; 10 nM test compound) [pmol/ml/μg prt] | Human Glucagon receptor antagonistic activity shown as inhibition of cAMP production of Glucagon peptide (human glucagon receptor; 100 nM test compound) [pmol/ml/μg prt] | Human Glucagon receptor antagonistic activity shown as inhibition of cAMP production of Glucagon peptide (human glucagon receptor; 1 μM test compound) [pmol/ml/μg prt] | Human Glucagon receptor antagonistic activity shown as inhibition of cAMP production of Glucagon peptide (human glucagon receptor; 10 μM test compound) [pmol/ml/μg prt] | % degradation of peptidomimetics in 24 h when incubated with simulated intestinal fluid [2] [%] | half-life at 2 μM [2] [h] | % degradation of peptidomimetics in 24 h when incubated with liver microsomes [3] [%] | half-life at 2 μM [3] [h] | % degradation of peptidomimetics in 24 h when incubated with simulated gastric fluid [4] [%] | half-life at 2 μM [4] [h] | half-life (t1/2) when incubated with simulated gastric fluid [4]
6 | CCc1cc(OC)ccc1-c1ccc(CC(NC(=O)[C@H](CC(=O)O)NC(=O)[C@H](CO)NC(=O)[C@@H](NC(=O)[C@H](Cc2ccccc2)NC(=O)[C@@H](NC(=O)CNC(=O)[C@H](CCC(N)=O)NC(=O)C(C)(C)NC(=O)[C@@H](N)Cc2c[nH]cn2)[C@@H](C)O)[C@@H](C)O)C(=O)NC(CCCc2ccc(C(F)(F)F)cc2F)C(N)=O)cc1 (stereo partly shown) [compound 65] (H-H[Aib]QGTFTSD[ξBip(2'-Et-4'-OMe)][X1]-NH2) | 8 | 9 | (6) h |  | 78 | 76 | 10 ± 0.12 | 8 ± 0.02 | 6 ± 0.04 | 4 ± 0.05 | 1 ± 0.02 | 43 |  | 80 | 1 | 14 |  | (8) h
